Consider six molecules from patent US20260199323A1, “LIGAND COMPOUNDS FOR E3 UBIQUITIN LIGASE, PROTEIN DEGRADERS DEVELOPED ON BASIS OF LIGAND COMPOUNDS, AND USES THEREOF” (GLUETACS THERAPEUTICS (SHANGHAI) CO., LTD., priority 2021, published 2026).

The test system of one assay is NCI-H1975. As to the kind of experiment: CCK-8 tumor cell proliferation, NCI-H1975. It is filed as cell-based, Human. To be noted: Table 11, designed based on EGFR inhibitors; 96 h. The procedure: (§1) The tumor cells used herein were cultured in a cell culture medium listed in table 4 at 37° C. in an incubator with 5% CO2. Prior to experimentation, all cells used were correctly identified by STR profiling, and tested negative for mycoplasma through routine screenings.
(§2) IC50 values of the compounds of the present disclosure (including the compounds in Tables 1 and 3, and compounds of examples) were measured using the Meilun Cell Counting Kit-8 kit from Dalian Meilun Biotech Co., Ltd. Assay details are as follows: tumor cells were seeded in a 96-well plate at a density listed in Table 5. After 24 h, 100 μL of the inoculated cells were treated with 0.5 μL of the compounds of the present disclosure (including the compounds in Tables 1 and 3, and compounds of examples) at 10 different successively decreasing concentrations (starting at the highest concentration of 10 μM; 5-fold serial dilutions). After the cells were treated with the compounds of the present disclosure for a period of time, the cell viability detection reagent was added to the culture medium for cell viability assessment according to the instructions provided with the CCK-8 kit. […] The growth inhibition of the compounds of the present disclosure on cells was plotted by Prism Graphpad software, and the IC50 values of the compounds of the present disclosure were calculated therefrom.

In another assay the test system is SW620. In words: CCK-8 tumor cell proliferation, SW620. It is filed as cell-based, Human. As to conditions: for IC50: Homo sapiens, SW-620, Table 18, FAK inhibitor based, SW620, read-out: IC50 inhibiting proliferation of tumor cells, SW620. The essentials: (§3)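 Authenticated cells, kept at 37 °C and 5% CO2, were given compound a day after plating; doses spanned 10 levels in 5-fold decrements from 10 μM. IC50 values come from CCK-8 viability readings.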

In the next assay the test system is Mino. In words: CCK-8 tumor cell proliferation, Mino. It is filed as cell-based, Human. To be noted: Homo sapiens; Table 18, FAK inhibitor based; Mino; read-out: IC50 inhibiting proliferation of tumor cells, Mino. The essentials:
as §3

The test system of the next assay is PC-9. In words: CCK-8 tumor cell proliferation, PC-9. To be noted: Homo sapiens; Table 18, FAK inhibitor based; PC-9; read-out: IC50 inhibiting proliferation of tumor cells, PC-9. It is filed as cell-based, Human.
For a further assay, the system named is Vcap. In words: CCK-8 tumor cell proliferation, Vcap. It is filed as cell-based, Human. As to conditions: for IC50: Homo sapiens, VCaP, Vcap, read-out: IC50 inhibiting proliferation of tumor cells, Vcap. As for the experimental part: as §1, §2
For a further assay, the system named is MDA-MB-231. In words: CCK-8 tumor cell proliferation, MDA-MB-231. It is filed as cell-based, Human. To be noted: Homo sapiens; Table 18, FAK inhibitor based; MDA-MB-231; read-out: IC50 inhibiting proliferation of tumor cells, MDA-MB-231. The essentials:
as §3

The next assay concerns CCRF-CEM. As to the kind of experiment: CCK-8 tumor cell proliferation, CCRF-CEM. It is filed as cell-based, Human. The arrangement: IC50 for inhibiting the proliferation of tumor cells, CCRF-CEM: scale not given here. As to conditions: for IC50: Homo sapiens, CCRF-CEM, read-out: IC50 inhibiting proliferation of tumor cells, CCRF-CEM. The essentials: as §3
Another assay deals with MM.1S. As to the kind of experiment: CCK-8 tumor cell proliferation, MM.1S. It is filed as cell-based. As to conditions: Homo sapiens, MM1.S; Table 18, FAK inhibitor based; MM.1S; read-out: IC50 inhibiting proliferation of tumor cells, MM.1S. As for the experimental part: as §1, §2
The test system of another assay is Jurkat. As to the kind of experiment: CCK-8 tumor cell proliferation, Jurkat. It is filed as cell-based, Human. To be noted: Homo sapiens, Table 22, NTRK inhibitor based, read-out: IC50 inhibiting proliferation of tumor cells, Jurkat. The procedure:
as §1, §2

For the next assay, the system named is CAL-62. As to the kind of experiment: CCK-8 tumor cell proliferation, CAL-62. It is filed as cell-based, Human. Details: IC50 for inhibiting the proliferation of tumor cells, CAL-62: scale not given here. To be noted: Table 8, designed based on ER inhibitors; 72 h. The essentials:
as §3

Where [1] appears, read: Table 8, designed based on ER inhibitors, 96 h.

Read-outs that look alike come from different tables or passages of the source.

`O=C1CCC(N2Cc3cc(CN4CCN(c5ccc(-c6ccc7c(c6)C(=O)N(C(C(=O)Nc6nccs6)c6cc(F)ccc6O)C7)cc5)CC4)ccc3C2=O)C(=O)N1` (stereo not drawn) [GT-03503, 2-(6-(4-(4-((2-(2,6-dioxopiperidin-3-yl)-1-oxoisoindolin-5-yl)methyl)piperazin-1-yl)phenyl)-1-oxoisoindolin-2-yl)-2-(5-fluoro-2-hydroxyphenyl)-N-(thiazol-2-yl)acetamide]: the “IC50 for inhibiting the proliferation of tumor cells, H1975” value with NCI-H1975 is on record as “A+”.

For `CN(Cc1ccc2c(c1)CN(C1CCC(=O)NC1=O)C2=O)C1CCN(c2ccc(Nc3ncc(C(F)(F)F)c(NCc4nccnc4N(C)S(C)(=O)=O)n3)cc2)CC1` (stereo not drawn) [GT-03705, N-(3-(((2-((4-(4-(((2-(2,6-dioxopiperidin-3-yl)-1-oxoisoindolin-5-yl)methyl)(methyl)amino)piperidin-1-yl)phenyl)amino)-5-(trifluoromethyl)pyrimidin-4-yl)amino)methyl)pyrazin-2-yl)-N-methylmethanesulfonamide], the IC50 was 100 to 500 nM with SW620; less than 50 nM in the assay on Mino; 1000 to 5000 nM in the assay on PC-9; 100 to 500 nM in the assay on Vcap (Table 18, FAK inhibitor based); less than 50 nM in the assay on MDA-MB-231; 50 to 100 nM with CCRF-CEM (Table 18, FAK inhibitor based).

As for `CN(c1nccnc1CNc1nc(Nc2ccc(N3CCC(N4CCN(Cc5ccc6c(c5)CN(C5CCC(=O)NC5=O)C6=O)CC4)CC3)cc2)ncc1C(F)(F)F)S(C)(=O)=O` (stereo not drawn) [GT-03706, N-(3-(((2-((4-(4-(4-((2-(2,6-dioxopiperidin-3-yl)-1-oxoisoindolin-5-yl)methyl)piperazin-1-yl)piperidin-1-yl)phenyl)amino)-5-(trifluoromethyl)pyrimidin-4-yl)amino)methyl)pyrazin-2-yl)-N-methylmethanesulfonamide], the IC50 with SW620 was 500 to 1000 nM; with Mino it was 100 to 500 nM; in the assay on PC-9, 1000 to 5000 nM; with Vcap (Table 18, FAK inhibitor based), 100 to 500 nM; in the assay on MDA-MB-231, less than 50 nM; with CCRF-CEM (Table 18, FAK inhibitor based), 100 to 500 nM.

Turning to `CNC(=O)c1ccccc1Nc1cc(Nc2ccc(N3CCN(Cc4cc5c(cc4F)C(=O)N(C4CCC(=O)NC4=O)C5)CC3)cc2OC)ncc1C(F)(F)F` (stereo not drawn) [GT-03716, 2-((2-((4-(4-((2-(2,6-dioxopiperidin-3-yl)-6-fluoro-1-oxoisoindolin-5-yl)methyl)piperazin-1-yl)-2-methoxyphenyl)amino)-5-(trifluoromethyl)pyridin-4-yl)amino)-N-methylbenzamide], the IC50 in the assay with SW620 was less than 50 nM; in the assay with Mino, less than 50 nM; with PC-9 it was 1000 to 5000 nM; in the assay with Vcap (Table 18, FAK inhibitor based), less than 50 nM; in the assay with MDA-MB-231 it was less than 50 nM; in the assay with MM.1S, less than 50 nM. Also, in the assay on CCRF-CEM (Table 18, FAK inhibitor based), the IC50 was less than 50 nM.

Regarding `O=C1CCC(N2Cc3cc(CN4CCN(c5cccc(-c6cnc7ccc(N8CCC[C@@H]8c8cccc(F)c8)nn67)n5)CC4)c(F)cc3C2=O)C(=O)N1` (stereo partly drawn) [GT-03866, 3-(6-fluoro-5-((4-(6-(6-((R)-2-(3-fluorophenyl)pyrrolidin-1-yl)imidazo[1,2-b]pyridazin-3-yl)pyridin-2-yl)piperazin-1-yl)methyl)-1-oxoisoindolin-2-yl)piperidine-2,6-dione], the IC50 in the assay on Vcap (Table 22, NTRK inhibitor based) was 50 to 100 nM; in the assay with Jurkat, less than 50 nM; in the assay with CCRF-CEM (Table 22, NTRK inhibitor based) it was less than 50 nM.

In the case of `CCC(=C(c1ccc(O)cc1)c1ccc(N2CCN(Cc3cc(F)c4c(c3)CN(C3CCC(=O)NC3=O)C4=O)CC2)cc1)c1ccc(O)cc1` (stereo not drawn) [GT-04146, 3-(5-((4-(4-(1,2-bis(4-hydroxyphenyl)but-1-en-1-yl)phenyl)piperazin-1-yl)methyl)-7-fluoro-1-oxoisoindolin-2-yl)piperidine-2,6-dione], the “IC50 for inhibiting the proliferation of tumor cells, SW620” value in the assay on SW620 (setting [1]) is given as “A+”. For the same molecule, the “IC50 for inhibiting the proliferation of tumor cells, Vcap” value in the assay with Vcap (setting [1]) is “A+”. In addition, the “IC50 for inhibiting the proliferation of tumor cells, CCRF-CEM” value in the assay on CCRF-CEM (setting [1]) was “A+”. Besides, in the assay with CAL-62, the “IC50 for inhibiting the proliferation of tumor cells, CAL-62” value is given as “A+”.
